From PubChem BioAssay AID1259407 (Chemical Carcinogenesis Research Information System (CCRIS), 2018)
Calls of active or inactive are those of the source. How the calls were made is not given here.

Test system: CCRIS mutagenicity, Ames/micronucleus/aberration tests
Experiment: CCRIS mutagenicity studies

Nc1ccccc1 was tested, and the mutagenic call (Test System: AMES SALMONELLA TYPHIMURIUM, Strain/Indicator: TA1535, Metabolic Activation: RAT, LIVER, S-9, Method: STANDARD PLATE) was “inactive; negative”, the mutagenic call (Test System: AMES SALMONELLA TYPHIMURIUM, Strain/Indicator: TA1537, Metabolic Activation: HAMSTER, LIVER, S-9, AROCLOR 1254, Method: STANDARD PLATE) was “inactive; negative” and the mutagenic call (Test System: AMES SALMONELLA TYPHIMURIUM, Strain/Indicator: TA1537, Metabolic Activation: HAMSTER, LIVER, S-9, Method: STANDARD PLATE) was “inactive; negative”. For the same molecule, the mutagenic call (Test System: AMES SALMONELLA TYPHIMURIUM, Strain/Indicator: TA1537, Metabolic Activation: MOUSE, LIVER, S-9, AROCLOR 1254, Method: STANDARD PLATE) was “inactive; negative”, the mutagenic call (Test System: AMES SALMONELLA TYPHIMURIUM, Strain/Indicator: TA1537, Metabolic Activation: MOUSE, LIVER, S-9, Method: STANDARD PLATE) was “inactive; negative” and the mutagenic call (Test System: AMES SALMONELLA TYPHIMURIUM, Strain/Indicator: TA1537, Metabolic Activation: NONE, Method: STANDARD PLATE) was “inactive; negative”. For the same molecule, the mutagenic call (Test System: AMES SALMONELLA TYPHIMURIUM, Strain/Indicator: TA1537, Metabolic Activation: RAT, LIVER, S-9, AROCLOR 1254, Method: STANDARD PLATE) was “inactive; negative”, the mutagenic call (Test System: AMES SALMONELLA TYPHIMURIUM, Strain/Indicator: TA1537, Metabolic Activation: RAT, LIVER, S-9, PYRAZOLE, Method: PREINCUBATION) was “inactive; negative” and the mutagenic call (Test System: AMES SALMONELLA TYPHIMURIUM, Strain/Indicator: TA1537, Metabolic Activation: RAT, LIVER, S-9, Method: STANDARD PLATE) was “inactive; negative”. The mutagenic call (Test System: AMES SALMONELLA TYPHIMURIUM, Strain/Indicator: TA1538, Metabolic Activation: HAMSTER, LIVER, S-9, AROCLOR 1254, Method: STANDARD PLATE) was “inactive; negative”, the mutagenic call (Test System: AMES SALMONELLA TYPHIMURIUM, Strain/Indicator: TA1538, Metabolic Activation: HAMSTER, LIVER, S-9, Method: STANDARD PLATE) was “inactive; negative” and the mutagenic call (Test System: AMES SALMONELLA TYPHIMURIUM, Strain/Indicator: TA1538, Metabolic Activation: HAMSTER, SPLEEN, S-9, AROCLOR 1254, Method: STANDARD PLATE) was “inactive; negative”. The mutagenic call (Test System: AMES SALMONELLA TYPHIMURIUM, Strain/Indicator: TA1538, Metabolic Activation: MOUSE, LIVER, S-9, AROCLOR 1254, Method: STANDARD PLATE) was “inactive; negative”, the mutagenic call (Test System: AMES SALMONELLA TYPHIMURIUM, Strain/Indicator: TA1538, Metabolic Activation: MOUSE, LIVER, S-9, Method: STANDARD PLATE) was “inactive; negative” and the mutagenic call (Test System: AMES SALMONELLA TYPHIMURIUM, Strain/Indicator: TA1538, Metabolic Activation: NONE, Method: STANDARD PLATE) was “inactive; negative”. For the same molecule, the mutagenic call (Test System: AMES SALMONELLA TYPHIMURIUM, Strain/Indicator: TA1538, Metabolic Activation: RAT, LIVER, S-9, AROCLOR 1254, Method: PREINCUBATION) was “inactive; negative”, the mutagenic call (Test System: AMES SALMONELLA TYPHIMURIUM, Strain/Indicator: TA1538, Metabolic Activation: RAT, LIVER, S-9, AROCLOR 1254, Method: STANDARD PLATE) was “inactive; negative” and the mutagenic call (Test System: AMES SALMONELLA TYPHIMURIUM, Strain/Indicator: TA1538, Metabolic Activation: RAT, LIVER, S-9, Method: STANDARD PLATE) was “inactive; negative”. For the same molecule, the mutagenic call (Test System: AMES SALMONELLA TYPHIMURIUM, Strain/Indicator: TA1538, Metabolic Activation: RAT, SPLEEN, S-9, AROCLOR 1254, Method: STANDARD PLATE) was “inactive; negative”, the mutagenic call (Test System: CHINESE HAMSTER V-79, Strain/Indicator: V-79/6-THIOGUANINE, Metabolic Activation: NONE, Method: SUSPENSION/PLATE) was “inactive; negative” and the mutagenic call (Test System: CHINESE HAMSTER V-79, Strain/Indicator: V-79/6-THIOGUANINE, Metabolic Activation: RAT, LIVER, HEPATOCYTES, Method: SUSPENSION/PLATE) was “inactive; negative”. The mutagenic call (Test System: CHINESE HAMSTER V-79, Strain/Indicator: V-79/6-THIOGUANINE, Metabolic Activation: RAT, LIVER, S-9, PHENOBARBITAL AND BETA-NAPHTHOFLAVONE, Method: SUSPENSION/PLATE) was “active; positive”, the mutagenic call (Test System: CHINESE HAMSTER V-79, Strain/Indicator: V-79/8-AZAGUANINE, Metabolic Activation: NONE, Method: SUSPENSION/PLATE) was “active; positive” and the mutagenic call (Test System: CHINESE HAMSTER V-79, Strain/Indicator: V-79/8-AZAGUANINE, Metabolic Activation: S-9, Method: SUSPENSION/PLATE) was “active; positive”. For the same molecule, the mutagenic call (Test System: CHINESE HAMSTER V-79, Strain/Indicator: V-79/OUABAIN, Metabolic Activation: NONE, Method: SUSPENSION/PLATE) was “inactive; negative”, the mutagenic call (Test System: CHINESE HAMSTER V-79, Strain/Indicator: V-79/OUABAIN, Metabolic Activation: S-9, Method: SUSPENSION/PLATE) was “inactive; negative” and the mutagenic call (Test System: E. COLI, Strain/Indicator: WP2 UVRA, Metabolic Activation: HAMSTER, LIVER, S-9, AROCLOR 1254, Method: PREINCUBATION) was “inactive; negative”. For the same molecule, the mutagenic call (Test System: E. COLI, Strain/Indicator: WP2 UVRA, Metabolic Activation: HAMSTER, LIVER, S-9, AROCLOR 1254, Method: STANDARD PLATE) was “inactive; negative”, the mutagenic call (Test System: E. COLI, Strain/Indicator: WP2 UVRA, Metabolic Activation: HAMSTER, LIVER, S-9, Method: PREINCUBATION) was “inactive; negative” and the mutagenic call (Test System: E. COLI, Strain/Indicator: WP2 UVRA, Metabolic Activation: HAMSTER, LIVER, S-9, Method: STANDARD PLATE) was “inactive; negative”. The mutagenic call (Test System: E. COLI, Strain/Indicator: WP2 UVRA, Metabolic Activation: MOUSE, LIVER, S-9, AROCLOR 1254, Method: PREINCUBATION) was “inactive; negative”, the mutagenic call (Test System: E. COLI, Strain/Indicator: WP2 UVRA, Metabolic Activation: MOUSE, LIVER, S-9, AROCLOR 1254, Method: STANDARD PLATE) was “inactive; negative” and the mutagenic call (Test System: E. COLI, Strain/Indicator: WP2 UVRA, Metabolic Activation: MOUSE, LIVER, S-9, Method: PREINCUBATION) was “inactive; negative”. For the same molecule, the mutagenic call (Test System: E. COLI, Strain/Indicator: WP2 UVRA, Metabolic Activation: MOUSE, LIVER, S-9, Method: STANDARD PLATE) was “inactive; negative”, the mutagenic call (Test System: E. COLI, Strain/Indicator: WP2 UVRA, Metabolic Activation: NONE, Method: FLUCTUATION TEST) was “inactive; negative” and the mutagenic call (Test System: E. COLI, Strain/Indicator: WP2 UVRA, Metabolic Activation: NONE, Method: PREINCUBATION) was “inactive; negative”. The mutagenic call (Test System: E. COLI, Strain/Indicator: WP2 UVRA, Metabolic Activation: NONE, Method: STANDARD PLATE) was “inactive; negative”, the mutagenic call (Test System: E. COLI, Strain/Indicator: WP2 UVRA, Metabolic Activation: RAT, LIVER, S-9, AROCLOR 1254, Method: PREINCUBATION) was “inactive; negative” and the mutagenic call (Test System: E. COLI, Strain/Indicator: WP2 UVRA, Metabolic Activation: RAT, LIVER, S-9, AROCLOR 1254, Method: STANDARD PLATE) was “inactive; negative”. For the same molecule, the mutagenic call (Test System: E. COLI, Strain/Indicator: WP2 UVRA, Metabolic Activation: RAT, LIVER, S-9, Method: PREINCUBATION) was “inactive; negative”, the mutagenic call (Test System: E. COLI, Strain/Indicator: WP2 UVRA, Metabolic Activation: RAT, LIVER, S-9, Method: STANDARD PLATE) was “inactive; negative” and the mutagenic call (Test System: MOUSE LYMPHOMA, Strain/Indicator: L5178Y (TK+/TK-), Metabolic Activation: NONE, Method: SUSPENSION/PLATE) was “active; positive”. For the same molecule, the mutagenic call (Test System: MOUSE LYMPHOMA, Strain/Indicator: L5178Y (TK+/TK-), Metabolic Activation: RAT, LIVER, S-9, AROCLOR 1254, Method: SUSPENSION/PLATE) was “active; positive”, the mutagenic call (Test System: UDS RAT HEPATOCYTES, Strain/Indicator: BROMODEOXYURIDINE INCORP, Metabolic Activation: NONE, Method: FLOW CYTOMETRIC ANALYSIS) was “inactive; negative” and the mutagenic call (Test System: UDS RAT HEPATOCYTES, Strain/Indicator: THY INCORP, Metabolic Activation: NONE, Method: AUTORADIOGRAPHY) was “inactive; negative”. The mutagenic call (Test System: UDS RODENT HEPATOCYTES, Strain/Indicator: THY INCORP (NON-S-PHASE), Metabolic Activation: NONE, Method: AUTORADIOGRAPHY) was “inactive; negative”.
